Test results: patent publication US9624238B2, “4H-thieno[3,2-C]chromene-based inhibitors of Notum Pectinacetylesterase and methods of their use” (Lexicon Pharmaceuticals, Inc., priority 2011, dated 2017)

Legend:
[1] = target: T1, human notum pectinacetyltransferase (Homo sapiens, UniProt Q6P988); assay: Binding assay (OPTS esterase substrate, fluorimetric); type: biochemical; settings: class symbols
T1 construct: made in house; unpurified conditioned medium used
T1 sequence (Q6P988 20-496): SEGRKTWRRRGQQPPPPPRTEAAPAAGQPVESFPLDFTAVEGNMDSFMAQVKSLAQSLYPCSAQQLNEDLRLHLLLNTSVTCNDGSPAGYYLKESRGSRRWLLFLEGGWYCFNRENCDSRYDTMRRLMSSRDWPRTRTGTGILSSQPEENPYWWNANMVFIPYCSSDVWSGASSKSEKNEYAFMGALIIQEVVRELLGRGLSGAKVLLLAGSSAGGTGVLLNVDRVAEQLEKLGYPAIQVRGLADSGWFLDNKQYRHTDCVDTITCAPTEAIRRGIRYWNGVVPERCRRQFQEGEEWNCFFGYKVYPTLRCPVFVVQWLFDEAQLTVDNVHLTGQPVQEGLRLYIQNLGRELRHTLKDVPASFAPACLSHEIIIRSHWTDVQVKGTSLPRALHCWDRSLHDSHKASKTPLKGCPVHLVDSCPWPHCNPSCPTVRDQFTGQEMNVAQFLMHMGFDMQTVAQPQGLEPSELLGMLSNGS
Protocol: Plasmid containing human notum pectinacetyltransferase in pcDNA3.1(+) vector was transfected into HEK (293 cells and clones were selecting by growing in presence of 400 ug/mL of G418. Condition media from these cells was used for the assay.

[2] = target: T1, human notum pectinacetyltransferase; assay: Reporter assay (CellSensor LEF/TCF-bla FreeStyle 293F cells, Wnt3a and notum conditioned media); type: cell-based; settings: class symbols
Protocol: Plasmid containing human notum pectinacetyltransferase in pcDNA3.1(+) vector was transfected into HEK (293 cells and clones were selecting by growing in presence of 400 ug/mL of G418. The clone containing highest expression of human notum pectinacetyltransferase in the conditioned media was maintained for all future activity assays. L cells overexpressing and secreting Wnt3a into the conditioned media were purchased from ATCC.
The assay protocol was as follows. […] The cell growth medium consisted of DMEM with 10% Dialyzed FBS, 5 μg/ml Blasticidin (Invitrogen, R210-01), 0.1 mM NEAA, 25 mM HEPES and 1×GPS. Cells were then trypsinized by first rinsing with PBS, followed by addition of 5 mL of trypsin and incubation of plates at room temperature for two minutes. A total of 10 mL of assay media (Opti-MEM, plus 0.5% dialyzed FBS, 0.1 mM NEAA, 1 mM sodium pyruvate, 10 mM HEPES, 1×GPS) was then added per 15 cm plate. Cells were counted and suspended at 0.75 million cells per mL. […] After incubation of cells at 37° C. for 3 hours, 10 μL of 30 mM LiCl in assay medium was added per well, followed by incubation at 37° C. for another 3 hours. […] Ten μL of the Wnt3a/notum pentinacetyltransferase mixture was then transferred from Greiner plates to each well of the 384-well plates containing the CellSensor cells.

SMILES | IC50 [1] | EC50 [2]
O=C(O)C1CCN(C(=O)c2cc3c(s2)-c2cc(F)cc(F)c2SC3)C1 (stereo not shown) | < 1 µM | < 0.05 µM
O=C1CCN(C(=O)c2cc3c(s2)-c2cc(F)cc(F)c2SC3)C1 | < 0.05 µM | < 0.05 µM
O=C(O)C1CN(C(=O)c2cc3c(s2)-c2ccc(Cl)c(F)c2OC3)CC1c1cccs1 (stereo not shown) | < 1 µM | < 0.05 µM
O=C(O)CNC(=O)c1cc2c(s1)-c1ccccc1CC2 | < 0.1 µM | < 0.05 µM
NC(=O)c1cc2c(s1)-c1ccsc1CC2 | < 0.05 µM | < 0.05 µM
O=C(O)c1cc2c(s1)-c1ccccc1OCC2 | < 0.05 µM | < 0.05 µM
NC(=O)c1cc2c(s1)-c1ccccc1SCC2 | < 0.05 µM | < 0.05 µM
CC(=O)N1Cc2cc(C(=O)O)sc2-c2ccccc21 | < 2 µM | < 0.1 µM
NC(=O)c1cc2c(s1)-c1cccc(Cl)c1SC2 | < 1 µM | < 0.05 µM
Cc1ccc2c(c1Cl)CCc1cc(C(N)=O)sc1-2 | < 0.05 µM | < 0.05 µM
NC(=O)c1cc2c(s1)-c1cc(F)cc(Cl)c1SC2 | < 0.1 µM | < 0.05 µM
Cc1ccc2c(c1F)CCc1cc(C(N)=O)sc1-2 | < 0.05 µM | < 0.05 µM
Cc1cc(F)c2c(c1)-c1sc(C(N)=O)cc1CC2 | < 0.05 µM | < 0.05 µM
NC(=O)c1cc2c(s1)-c1ccc(Cl)c(Cl)c1OC2 | < 0.1 µM | < 0.05 µM
NC(=O)c1cc2c(s1)-c1ccc(Cl)c(Cl)c1SC2 | < 0.1 µM | < 0.05 µM
O=C(NCc1ccccn1)c1cc2c(s1)-c1ccc(F)c(F)c1CC2 | < 0.05 µM | < 0.05 µM
NC(=O)c1cc2c(s1)-c1cc(F)c(F)c(F)c1SC2 | < 0.05 µM | < 0.05 µM
NC(=O)c1cc2c(s1)-c1cc(Cl)cc(Cl)c1SC2 | < 2 µM | < 0.05 µM
NC(=O)c1cc2c(s1)-c1cc(F)cc(F)c1SC2 | < 0.05 µM | < 0.05 µM
Cc1cc(C)c2c(c1)-c1sc(C(N)=O)cc1CO2 | < 2 µM | < 0.05 µM
NC(=O)c1cc2c(s1)-c1ccc(Cl)c(F)c1OC2 | < 0.05 µM | < 0.05 µM
NC(=O)c1cc2c(s1)-c1ccc(Cl)c(F)c1SC2 | < 0.05 µM | < 0.05 µM
NC(=O)c1cc2c(s1)-c1cc(F)c(Cl)cc1SC2 | < 0.1 µM | < 0.05 µM
COc1ccc2c(c1)OCc1cc(C(N)=O)sc1-2 | < 1 µM | < 0.1 µM
COc1ccc2c(c1)OCc1cc(C(=O)O)sc1-2 | < 2 µM | < 0.1 µM
O=C(O)c1cc2c(s1)-c1cc(F)c(F)cc1OC2 | < 0.1 µM | < 0.05 µM
O=C(O)c1cc2c(s1)-c1cc(Br)ccc1OC2 | < 0.1 µM | < 0.05 µM

SMILES | IC50 [1] | EC50 [2]
O=C(O)c1cc2ccc3scc(Cl)c3c2s1 | < 0.05 µM | < 1 µM
O=C(O)c1cc2c(s1)-c1cc([N+](=O)[O-])ccc1OC2 | < 1 µM | < 0.05 µM
NC(=O)c1cc2c(s1)-c1cc(Cl)ccc1OCC2 | < 0.1 µM | < 0.1 µM
NC(=O)c1cc2c(s1)-c1cc(F)ccc1OCC2 | < 0.05 µM | < 0.05 µM
NC(=O)c1cc2c(s1)-c1cc(F)ccc1CCC2 | < 0.05 µM | < 0.05 µM
CC(C)(C#N)NC(=O)c1cc2c(s1)-c1ccccc1CC2 | < 1 µM | < 0.5 µM
O=C(NCCO)c1cc2c(s1)-c1ccccc1CCC2 | < 0.1 µM | < 0.1 µM
N#CCNC(=O)c1cc2c(s1)-c1ccccc1CC2 | < 0.05 µM | < 0.05 µM
CNC(=O)c1cc2c(s1)-c1ccccc1CC2 | < 0.1 µM | < 0.05 µM
CN(C)C(=O)c1cc2c(s1)-c1ccccc1CC2 | < 1 µM | < 0.05 µM
O=C(c1cc2c(s1)-c1cc(F)cc(F)c1SC2)N1CCCC1CO (stereo not shown) | < 1 µM | < 0.1 µM
O=C(c1cc2c(s1)-c1cc(F)cc(F)c1SC2)N1CCC(O)C1 (stereo not shown) | < 0.05 µM | < 0.05 µM
COC1CCN(C(=O)c2cc3c(s2)-c2cc(F)cc(F)c2SC3)C1 (stereo not shown) | < 0.1 µM | < 0.05 µM
O=C(c1cc2c(s1)-c1cc(F)cc(F)c1SC2)N1CC[C@H](F)C1 | < 1 µM | < 0.05 µM
O=C(c1cc2c(s1)-c1c(F)ccc(F)c1SC2)N1CC[C@H](F)C1 | < 0.1 µM | < 0.05 µM
O=C(c1cc2c(s1)-c1cc(F)c(Cl)cc1SC2)N1CC[C@H](F)C1 | < 1 µM | < 0.05 µM
CCOC(=O)c1cc2c(s1)-c1ccc(C)c(Cl)c1CC2 | < 1 µM | < 0.05 µM
CCOC(=O)c1cc2c(s1)-c1cc(C)cc(F)c1CC2 | < 1 µM | < 0.05 µM
CCOC(=O)c1cc2c(s1)-c1cc(C)cc(C)c1CC2 | < 2 µM | < 0.1 µM
CCOC(=O)c1cc2c(s1)-c1ccc(Cl)c(F)c1SC2 | < 1 µM | < 0.1 µM
CCOC(=O)c1cc2c(s1)-c1ccc(C)c([N+](=O)[O-])c1CC2 | < 0.1 µM | < 0.05 µM
O=C(O)C1CCN(C(=O)c2cc3c(s2)-c2c(F)ccc(F)c2SC3)C1 (stereo not shown) | < 0.1 µM | < 0.05 µM
COC(=O)C1CN(C(=O)c2cc3c(s2)-c2cc(C)cc(F)c2CC3)CC1c1ccccc1 (stereo not shown) | < 1 µM | < 0.05 µM
COC(=O)C1CCN(C(=O)c2cc3c(s2)-c2cc(F)cc(F)c2SC3)C1 (stereo not shown) | < 1 µM | < 0.05 µM
COC(=O)CNC(=O)c1cc2c(s1)-c1ccccc1CC2 | < 1 µM | < 0.05 µM
COC(=O)CNC(=O)c1cc2c(s1)-c1cc(C)cc(C)c1CC2 | < 2 µM | < 0.1 µM

Continued, values first:

IC50 [1] | EC50 [2] | SMILES
< 0.05 µM | < 0.5 µM | O=C(O)c1cc2c(s1)-c1ccsc1CC2
< 1 µM | < 1 µM | O=C(O)c1cc2c(s1)-c1ccccc1CCC2
< 1 µM | < 0.05 µM | O=C(O)c1cc2c(s1)-c1cc(Cl)cc(Br)c1OC2
< 2 µM | < 0.05 µM | O=C(O)c1cc2c(s1)-c1cccc(Cl)c1SC2
< 0.1 µM | < 0.05 µM | Cc1ccc2c(c1Cl)CCc1cc(C(=O)O)sc1-2
< 0.05 µM | < 0.05 µM | O=C(O)c1cc2c(s1)-c1cc(F)cc(Cl)c1SC2
< 0.05 µM | < 0.05 µM | O=C(O)c1cc2c(s1)-c1cccc(F)c1CC2
< 0.1 µM | < 0.05 µM | COc1ccc2c(c1F)CCc1cc(C(=O)O)sc1-2
< 0.1 µM | < 0.05 µM | Cc1ccc2c(c1F)CCc1cc(C(=O)O)sc1-2
< 0.1 µM | < 0.05 µM | O=C(O)c1cc2c(s1)-c1ccc(Cl)c(Cl)c1SC2
< 1 µM | < 0.05 µM | O=C(O)c1cc2c(s1)-c1cc(Cl)cc(Cl)c1SC2
< 0.05 µM | < 0.05 µM | Cc1cc(C)c2c(c1)-c1sc(C(=O)O)cc1CC2
< 0.05 µM | < 0.5 µM | O=C(O)c1cc2c(s1)-c1sc(Cl)cc1CC2
< 0.1 µM | < 0.05 µM | O=C(O)c1cc2c(s1)-c1ccc(Cl)c(F)c1OC2
< 0.05 µM | < 0.05 µM | O=C(O)c1cc2c(s1)-c1ccc(Cl)c(F)c1SC2
< 2 µM | < 0.05 µM | O=C(O)c1cc2c(s1)-c1cc(F)c(Cl)cc1S(=O)(=O)C2
< 0.1 µM | < 0.05 µM | O=C(O)c1cc2c(s1)-c1cc(F)c(Cl)cc1SC2
< 0.05 µM | < 0.05 µM | Cc1ccc2c(c1[N+](=O)[O-])CCc1cc(C(=O)O)sc1-2
< 2 µM | < 0.05 µM | NC(=O)c1cc2c(s1)-c1ccc(Cl)c(Cl)c1OCC2
< 0.05 µM | < 0.05 µM | O=C(O)c1cc2c(s1)-c1ccc(Cl)c(Cl)c1OCC2
< 1 µM | < 0.05 µM | NC(=O)c1cc2c(s1)-c1cc(Cl)c(Cl)cc1CC2
< 0.1 µM | < 0.05 µM | O=C(O)c1cc2c(s1)-c1cc(Cl)c(Cl)cc1CC2
< 1 µM | < 0.05 µM | Cc1cc(F)cc2c1SCc1cc(C(=O)O)sc1-2
< 0.1 µM | < 0.05 µM | Cc1cc2c(cc1F)-c1sc(C(=O)O)cc1CS2
< 0.1 µM | < 0.1 µM | O=C(O)c1cc2c(s1)-c1cc(Cl)ccc1OCC2
< 0.05 µM | < 0.05 µM | O=C(O)c1cc2c(s1)-c1cc(F)ccc1OCC2
< 1 µM | < 1 µM | O=C(O)c1cc2c(s1)-c1cc(F)ccc1CCC2
